Experimental data published in patent US20230165970A1, “COMPOSITIONS AND METHODS FOR THE TREATMENT OF BACTERIAL INFECTIONS” (priority 2017, published 2023).
Converted amounts (≈) assume the structure as drawn. Like-named read-outs stand apart in the source and are kept apart here. *1 amine or outer side, *2 acyl side, *3 side chain or, on linkers, in order; H or OH if unused. Where a SMILES comes first, the peptide text is derived from it. Bridges are numbered along the chain shown (N, C = ends). Roman numbers before positions name the chains, in order. [ ]: non-standard residue; d: D form. ξ: configuration not given here. X9 = C#CCOCCOCCOCCOCCC(=O)N1C[C@@H](C(=O)[*:1])[C@H](C(=O)[*:2])C1; X4 = C#CCOCCOCCOCCOCCNC(=O)CN(CC(=O)[*:1])CC(=O)[*:2]; X3 = CCCCC[C@@H](O)[C@H](N[*:1])C(=O)[*:2]; Nle = CCCC[C@H](N)C(=O)O; ξF = NC(Cc1ccccc1)C(=O)O; Dab = NCC[C@H](N)C(=O)O; ξT = CC(O)C(N)C(=O)O; azaGly = NNC(=O)O

Legend:
Pa LES431 = assay type: cell-based, Pseudomonas aeruginosa
Description: (§1) Briefly, stock solutions of all antibacterial agents were prepared fresh in appropriate solvents (i.e. PBS, pH 7.4, DMSO, DI, etc.). Stock concentrations for drug conjugates were made at 12.5× the highest final assay concentration. All were serially diluted 2-fold, 8 or 12 times in a 96-well PCR plate (VWR cat. no. 83007-374). Bacterial cell suspensions generated from Mueller-Hinton agar (MHA) plate cultures were prepared in 0.85% saline and adjusted to ˜0.1 OD600 nm. […] For the conjugates, 92 μL of each cell suspension in RPMI B were added in the same 96-well plate assay format. […] Compounds were tested against a 14-strain panel comprised of E. coli (Ec), A. baumannii (Ab), P. aeruginosa (Pa), and K. pneumoniae (Kp) that were obtained from ATCC (Ec 25922, Ec 2489, Ab 19606, Pa 27853, Pa PAO1, Kp 43816, Kp 10031), Centers for Disease Control and Prevention (Ec AR0349), BEI Resources (Ab AB5075), Micromyx LLC (Ab 8990, Kp 6951), and Belgian Coordinated Collections of Microorganisms (Pa LES431) or generated in-house (Ec 25922 64X-1). […] E. coli strain ATCC 25922 and P. aeruginosa strain LES431 were run in the presence and absence of 50% heat-inactivated fetal bovine serum (FBS; Sigma, cat. no. F4135-100 mL). Plates were mixed by shaking then incubated at 35° C. overnight (16-20 h).

Pa PAO1 = assay type: cell-based, Pseudomonas aeruginosa
Description: as §1

Pa 27853 = assay type: cell-based, Pseudomonas aeruginosa
Description: as §1

Ab 8990 (COL^R) = assay type: cell-based, Acinetobacter baumannii
Description: as §1

Ab AB5075 = assay type: cell-based, Acinetobacter baumannii
Description: as §1

Kp 6951 (COL^R) = assay type: cell-based, Klebsiella pneumoniae
Description: as §1

Kp 43816 = assay type: cell-based, Klebsiella pneumoniae
Description: as §1

Kp 10031 = assay type: cell-based, Klebsiella pneumoniae
Description: as §1

Ec 2469 = assay type: cell-based, Escherichia coli
Description: as §1

Ec 25922 = assay type: cell-based, Escherichia coli
Description: as §1

Ec 25922 64X-1 (COL^R) = assay type: cell-based, Escherichia coli; settings: media CA-MHB
Description: (§2) Briefly, stock solutions of all antibacterial agents were prepared fresh in appropriate solvents (i.e. PBS, pH 7.4, DMSO, DI, etc.). Stock concentrations for drug conjugates were made at 12.5× the highest final assay concentration. All were serially diluted 2-fold, 8 or 12 times in a 96-well PCR plate (VWR cat. no. 83007-374). Bacterial cell suspensions generated from Mueller-Hinton agar (MHA) plate cultures were prepared in 0.85% saline and adjusted to ˜0.1 OD600 nm. Next, cell suspensions were diluted 1:200 in RPMI containing 5% Luria Broth (LB) to improve bacterial growth (BD Difco, cat. no. 244620) to a concentration of ˜5×10^5 CFU (colony-forming units)/mL. Due to poor solubility in Mueller-Hinton broth media, drug conjugates were evaluated in RPMI 1640 medium (+) L-glutamine, (+) sodium bicarbonate, pH 7.4 (“RPMI B”; Gibco, cat. no. 11875-085) as has been described as a more physiologically-relevant media for susceptibility testing of antibacterial compounds (1). For the conjugates, 92 μL of each cell suspension in RPMI B were added in the same 96-well plate assay format. […] Compounds were tested against a 14-strain panel comprised of E. coli (Ec), A. baumannii (Ab), P. aeruginosa (Pa), and K. pneumoniae (Kp) that were obtained from ATCC (Ec 25922, Ec 2489, Ab 19606, Pa 27853, Pa PAO1, Kp 43816, Kp 10031), Centers for Disease Control and Prevention (Ec AR0349), BEI Resources (Ab AB5075), Micromyx LLC (Ab 8990, Kp 6951), and Belgian Coordinated Collections of Microorganisms (Pa LES431) or generated in-house (Ec 25922 64X-1). […] E. coli strain ATCC 25922 and P. aeruginosa strain LES431 were run in the presence and absence of 50% heat-inactivated fetal bovine serum (FBS; Sigma, cat. no. F4135-100 mL). Plates were mixed by shaking then incubated at 35° C. overnight (16-20 h).

Ec AR0349 (mcr-1, COL^R) = assay type: cell-based, Escherichia coli; settings: media CA-MHB
Description: as §2

Ab 19606 (COLhet^R) = assay type: cell-based, Acinetobacter baumannii; settings: media CA-MHB
Description: as §2

Structure (SMILES): C#CCOCCOCCOCCOCCC(=O)N1C[C@@H](C(=O)N[C@@H](CCCC)C(=O)N[C@@H](CCN)C(=O)N[C@H](C(=O)NNC(=O)N[C@H]2CCNC(=O)[C@H]([C@@H](C)O)NC(=O)[C@H](CCN)NC(=O)[C@H](CCN)NC(=O)[C@H](CC(C)C)NC(=O)C(Cc3ccccc3)NC(=O)[C@H](CCN)NC2=O)[C@@H](C)O)[C@H](C(=O)N[C@@H](CCCC)C(=O)N[C@@H](CCN)C(=O)N[C@H](C(=O)NNC(=O)N[C@H]2CCNC(=O)C(C(C)O)NC(=O)[C@H](CCN)NC(=O)[C@H](CCN)NC(=O)[C@H](CC(C)C)NC(=O)[C@@H](Cc3ccccc3)NC(=O)[C@H](CCN)NC2=O)[C@@H](C)O)C1 (stereo partly shown) [Int-107] (I: [Nle][Dab]T[azaGly][Dab][Dab][dF]L[Dab][Dab][ξT] / II: [Nle][Dab]T[azaGly][Dab][Dab][ξF]L[Dab][Dab]T; lactam I:5-I:C, II:5-II:C; linker I:N-II:N via X9)
- MIC (Pa LES431; Pa LES431 + FBS (50%, heat-inactivated), media CA-MHB): 8 µg/mL
- MIC (Pa LES431; Pa LES431, media CA-MHB): 2 µg/mL (≈ 0.759 µM)
- MIC (Pa PAO1; Pa PAO1, media CA-MHB): 2 µg/mL (≈ 0.759 µM)
- MIC (Pa 27853; Pa 27853, media CA-MHB): 2 µg/mL (≈ 0.759 µM)
- MIC (Ab 8990 (COL^R); Ab 8990 (COL^R), media CA-MHB): >128 µg/mL
- MIC (Ab AB5075; Ab AB5075, media CA-MHB): 2 µg/mL (≈ 0.759 µM)
- MIC (Kp 6951 (COL^R); Kp 6951 (COL^R), media CA-MHB): 16 µg/mL (≈ 6.07 µM)
- MIC (Kp 43816; Kp 43816, media CA-MHB): 2 µg/mL (≈ 0.759 µM)
- MIC (Kp 10031; Kp 10031, media CA-MHB): 2 µg/mL (≈ 0.759 µM)
- MIC (Ec 2469; Ec 2469, media CA-MHB): 2 µg/mL (≈ 0.759 µM)
- MIC (Ec 25922; Ec 25922 + FBS (50%, heat-inactivated), media CA-MHB): 0.5 µg/mL
- MIC (Ec 25922; Ec 25922, media CA-MHB): 2 µg/mL (≈ 0.759 µM)
- MIC (Ec 25922 64X-1 (COL^R)): 4 µg/mL (≈ 1.52 µM)
- MIC (Ec AR0349 (mcr-1, COL^R)): 2 µg/mL (≈ 0.759 µM)
- MIC (Ab 19606 (COLhet^R)): 2 µg/mL (≈ 0.759 µM)

Structure (SMILES): C#CCOCCOCCOCCOCCNC(=O)CN(CC(=O)N[C@@H](CCCC)C(=O)N[C@@H](CCN)C(=O)N[C@H](C(=O)NNC(=O)N[C@H]1CCNC(=O)[C@H]([C@@H](C)O)NC(=O)[C@H](CCN)NC(=O)[C@H](CCN)NC(=O)[C@H](CC(C)C)NC(=O)[C@@H](Cc2ccccc2)NC(=O)[C@H](CCN)NC1=O)[C@H](O)CCCCC)CC(=O)N[C@@H](CCCC)C(=O)N[C@@H](CCN)C(=O)N[C@H](C(=O)NNC(=O)N[C@H]1CCNC(=O)[C@H]([C@@H](C)O)NC(=O)[C@H](CCN)NC(=O)[C@H](CCN)NC(=O)[C@H](CC(C)C)NC(=O)[C@@H](Cc2ccccc2)NC(=O)[C@H](CCN)NC1=O)[C@H](O)CCCCC [Int-111] (I: [Nle][Dab][X3][azaGly][Dab][Dab][dF]L[Dab][Dab]T / II: [Nle][Dab][X3][azaGly][Dab][Dab][dF]L[Dab][Dab]T; lactam I:5-I:C, II:5-II:C; linker I:N-II:N via X4)
- MIC (Pa LES431): 4 µg/mL (≈ 1.45 µM)
- MIC (Pa PAO1; PAO1): 8 µg/mL (≈ 2.91 µM)
- MIC (Pa 27853): 4 µg/mL (≈ 1.45 µM)
- MIC (Ab 8990 (COL^R)): 32 µg/mL (≈ 11.6 µM)
- MIC (Ab AB5075): 4 µg/mL (≈ 1.45 µM)
- MIC (Kp 6951 (COL^R)): 8 µg/mL (≈ 2.91 µM)
- MIC (Kp 43816): 4 µg/mL (≈ 1.45 µM)
- MIC (Kp 10031): 4 µg/mL (≈ 1.45 µM)
- MIC (Ec 2469): 4 µg/mL (≈ 1.45 µM)
- MIC (Ec 25922): 4 µg/mL (≈ 1.45 µM)
- MIC (Ec 25922 64X-1 (COL^R)): 4 µg/mL (≈ 1.45 µM)
- MIC (Ec AR0349 (mcr-1, COL^R)): 4 µg/mL (≈ 1.45 µM)
- MIC (Ab 19606 (COLhet^R)): 4 µg/mL (≈ 1.45 µM)
